Results taken from paper PMC12301304 (Frontiers in Pharmacology, 2025).

Key:
[1] = biological target: T1, CYP2b1 (Rattus norvegicus, UniProt P00176); set-up: from tissue; host or cells: live male Sprague-Dawley rats (whole animal, mainly liver); conditions: in vivo
T1 sequence (P00176 1-491): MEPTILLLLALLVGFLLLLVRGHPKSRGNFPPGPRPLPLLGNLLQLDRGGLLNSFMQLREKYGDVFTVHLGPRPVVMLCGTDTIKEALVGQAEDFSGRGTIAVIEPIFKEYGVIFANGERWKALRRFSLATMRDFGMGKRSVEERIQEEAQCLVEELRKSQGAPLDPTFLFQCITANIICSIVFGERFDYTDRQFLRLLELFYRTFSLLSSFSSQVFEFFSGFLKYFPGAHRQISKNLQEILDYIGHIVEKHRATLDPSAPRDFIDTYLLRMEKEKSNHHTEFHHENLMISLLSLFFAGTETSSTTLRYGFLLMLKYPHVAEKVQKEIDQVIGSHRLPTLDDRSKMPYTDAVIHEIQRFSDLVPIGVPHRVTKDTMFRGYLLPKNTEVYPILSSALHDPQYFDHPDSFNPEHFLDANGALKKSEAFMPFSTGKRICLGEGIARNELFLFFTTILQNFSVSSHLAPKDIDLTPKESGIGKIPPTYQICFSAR
Experimental: (§4) The effect of the Zhicaowu–Hezi combination on CYP450 enzymes in rats was evaluated by examining the pharmacokinetics of theophylline (CYP1a2), metoprolol (CYP2d2), bupropion (CYP2b1), omeprazole (CYP2c13), chlorzoxazone (CYP2e1), testosterone (CYP3a1), and diclofenac (CYP2c11).
(§5) The collected blood was placed in sodium heparin-treated centrifuge tubes and centrifuged at 4°C for 10 min at 3,000 RPM. […] After 10 min of sedimentation, the supernatant was extracted through a 0.22-μm microporous membrane, 20 μL of which was injected into HPLC. The pharmacokinetic parameters of each probe drug were calculated using the non-atrial compartment model in Drug and Statistics software (DAS, 3.0; Shanghai, China).

[2] = biological target: T2, CYP2c13 (Rattus norvegicus, UniProt P20814); set-up: from tissue; host or cells: live male Sprague-Dawley rats (whole animal, mainly liver); conditions: in vivo
T2 sequence (P20814 1-490): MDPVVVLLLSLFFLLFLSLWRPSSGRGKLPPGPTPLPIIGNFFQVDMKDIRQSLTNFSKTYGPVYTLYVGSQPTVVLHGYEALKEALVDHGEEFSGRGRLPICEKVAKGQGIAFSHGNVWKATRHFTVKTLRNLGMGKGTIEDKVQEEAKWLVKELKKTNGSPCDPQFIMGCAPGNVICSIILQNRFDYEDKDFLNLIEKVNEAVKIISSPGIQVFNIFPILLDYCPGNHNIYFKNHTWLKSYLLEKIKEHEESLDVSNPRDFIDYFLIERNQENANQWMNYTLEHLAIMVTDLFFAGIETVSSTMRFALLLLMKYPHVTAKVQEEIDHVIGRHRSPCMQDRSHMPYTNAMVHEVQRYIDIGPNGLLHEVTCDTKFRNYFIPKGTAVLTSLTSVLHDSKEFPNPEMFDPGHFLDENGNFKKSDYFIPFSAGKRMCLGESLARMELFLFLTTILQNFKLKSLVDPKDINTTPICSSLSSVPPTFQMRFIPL
Experimental: as §4, §5

[3] = tested on: rat liver; format: in vivo; conditions: rats after final administration, H&E, Figure 7
Experimental: After the final administration, all rats were euthanized, and blood and liver samples were collected. The levels of biochemical indicators ALT, AST and ALP in the blood were detected according to the kit instruction. The liver histopathology was analyzed by H&E staining. Briefly, liver tissues were fixed in 10% paraformaldehyde (for over 24 h, 4°C), paraffin-embedded, and sectioned into 5-µm slices). […]

[4] = biological target: T3, CYP1a2 (Rattus norvegicus, UniProt P04799); set-up: from tissue; host or cells: live male Sprague-Dawley rats (whole animal, mainly liver); conditions: in vivo
T3 sequence (P04799 1-513): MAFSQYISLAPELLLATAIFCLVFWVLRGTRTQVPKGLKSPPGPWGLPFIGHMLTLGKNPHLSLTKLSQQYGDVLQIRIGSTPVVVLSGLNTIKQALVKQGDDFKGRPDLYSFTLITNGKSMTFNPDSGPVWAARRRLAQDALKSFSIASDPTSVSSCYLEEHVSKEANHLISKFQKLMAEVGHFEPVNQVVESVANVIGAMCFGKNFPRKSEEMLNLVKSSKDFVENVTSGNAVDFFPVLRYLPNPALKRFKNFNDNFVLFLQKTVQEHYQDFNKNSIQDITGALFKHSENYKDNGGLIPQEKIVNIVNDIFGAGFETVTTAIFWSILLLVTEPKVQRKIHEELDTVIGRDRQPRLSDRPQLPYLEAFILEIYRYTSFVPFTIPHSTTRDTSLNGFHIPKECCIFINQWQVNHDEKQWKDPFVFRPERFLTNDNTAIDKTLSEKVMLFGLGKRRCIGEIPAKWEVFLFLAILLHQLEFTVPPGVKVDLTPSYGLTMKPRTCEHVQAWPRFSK
Experimental: as §4, §5

[5] = biological target: T1, CYP2b1; experiment: RLM incubation: metabolic clearance rate of bupropion (CYP2b1); conditions: RLM 0.5 mg/mL, 30 min 37°C, inhibitor added, blank control 7.92 ± 0.60, n = 3
Experimental: (§1) The effect of the Zhicaowu–Hezi combination on CYP450 enzymes in RLM was evaluated by assessing the metabolic clearance rates of theophylline, metoprolol, bupropion, mephenytoin (CYP2c13), chlorzoxazone, testosterone, and diclofenac.
(§2) On day 15, the rats were humanely euthanized, and liver tissues were excised for microsomal preparation. […] Livers from each group were repeatedly washed with ice-cold phosphate buffered saline (PBS). […] Subsequently, they were blotted dry with filter paper, weighed, and homogenized by adding 4 mL of ice-cold PBS per gram of liver tissue. The mixture was homogenized in an ice bath. The liver homogenate was subjected to centrifugation at 10,000 RPM for 20 min at 4°C. The resulting supernatant was then combined with an ice-cold 88-mmol/L CaCl2 solution at a 1:1 ratio, and the mixture was homogenized in an ice bath for 5 min. The resulting solution was then centrifuged at 25,000 × g for 30 min at 4°C. The supernatant was discarded and the precipitate was repeatedly resuspended in PBS–20% glycerol buffer. The precipitate was then stored in a separate bottle at −80°C for backup. The protein concentration of the prepared RLM was determined using a bicinchoninic acid protein assay kit.
(§3) Preincubation was conducted for 5 min in a water bath at 37°C, after which NADPH (1 mmol/L) was added, and incubation continued for 30 min at 37°C. Once the incubation period elapsed, the reaction was terminated by the addition of an ice-cold IS-containing acetonitrile solution. The samples were vortexed for 2 min and centrifuged at 15,000 RPM for 10 min. The resulting supernatant was filtered through a 0.22-μm organic microporous membrane, and 20 μL of the filtered solution was injected into the HPLC assay. To prevent the organic solvents from inducing or inhibiting the enzyme, the volume fraction of organic solvents in the entire incubation system was maintained at 1%. […] The inhibitor group was added with corresponding inhibitor, while all other procedures remained identical.

[6] = biological target: T3, CYP1a2; conditions: microsomes
Experimental: as §1, §2, §3

Structure (SMILES) | bupropion AUC(0-t) [1] | bupropion AUC(0-∞) [1] | bupropion CLz/F [1] | bupropion Cmax [1] | bupropion t1/2 z [1] | omeprazole AUC(0-t) [2] | omeprazole AUC(0-∞) [2] | omeprazole CLz/F [2] | omeprazole Cmax [2] | omeprazole t1/2 z [2] | liver histopathology finding [3] | theophylline AUC(0-t) [4] | theophylline AUC(0-∞) [4] | theophylline CLz/F [4] | theophylline Cmax [4] | theophylline t1/2 z [4] | CYP2b1(%) metabolic clearance rate of probe drug [5] | CYP1a2 (%) metabolic clearance rate of probe drug [6]
CCC1(c2ccccc2)C(=O)NC(=O)NC1=O [P, phenobarbital sodium] | 13249 ± 1396 ng·h/mL | 13714 ± 1057 ng·h/mL | 7.53418 ± 1.2563 mL/min/kg | 1151 ± 138 ng/mL | 15.564 ± 0.555 h | 3040 ± 177 ng·h/mL | 3187 ± 239 ng·h/mL | 3,028.688 ± 253.193 mL/h/kg | 535 ± 63 ng/mL | 2.761 ± 0.227 h | Scattered cellular edema | 12257 ± 742 ng·h/mL | 13565 ± 801 ng·h/mL | 7,744.326 ± 56.253 mL/h/kg | 1138 ± 201 ng/mL | 2.509 ± 0.436 h |  | 
S=P(N1CC1)(N1CC1)N1CC1 [Thiotepa] |  |  |  |  |  |  |  |  |  |  |  |  |  |  |  |  | 2.24 ± 0.16 % | 35.91 ± 1.40%
O=c1cc(-c2ccccc2)oc2c1ccc1ccccc12 [α-naphthoflavone] |  |  |  |  |  |  |  |  |  |  |  |  |  |  |  |  | 8.00 ± 0.97% | 28.92 ± 1.91 %
